Data set [1] concerns NTUB1 cells. Nature of the data set: Trial (D): production of reactive oxygen species by flow cytometry (DCF). The class given is cell-based, human. Conditions: 24 hours. The protocol: In trial (D), production of reactive oxygen species (ROS) is analyzed by flow cytometry, since the levels of ROS play an important role in apoptosis.
Referring to TABLE 4, the NTUB1 cells at a density of 8×10^5 cells/ml are prepared and assigned into 5 groups, including D1 to D5, to incubate in various medium for 24 hours. Next, 10 μM of 2,7-dichlorodihydrofluorescein diacetate (H2DCFHDA; Molecular Probes, Eugene, Oreg.) is added to the NTUB1 cells of each group 30 minutes prior than harvest, followed by collecting the NTUB1 cells of each group respectively and washing with PBS buffer. With such arrangement, the 2,7-dichlorodihydrofluorescein diacetate will penetrate into cells, interact with esterase, and degrade to 2,7-dichlorofluorescein (DCF) having green fluorescein, which can be determined by flow cytometer. In trial (D), green fluorescence of intracellular DCF in each group are analyzed immediately by FACScan flow cytometer (Becton Dickinson) at a wavelength of 525 nm.
For orientation: Flow cytometry measures light scatter and fluorescence of single cells or particles in a stream.

The test system of data set [2] is NTUB1 cells. Nature of the data set: Trial (E): cell cycle progression by flow cytometry (propidium iodide). The data set is classed as cell-based, human. Further details: Sub-G1 / G1: unit not given here. Conditions: 24 hours, NTUB1. The protocol:
In order to determine a relationship between the derivatives of 18β-glycyrrhetinic acid of the present invention and cell cycle arrest, trial (E) is carried out by analyzing cell cycle progression by flow cytometry. […] After that, cell cycle progression of each group is determined respectively by incubating with 50 μg/mL propidium iodide (Sigma, Co) and 50 μg/mL RNase A (Sigma, Co) in PBS at room temperature for 30 min, and analyzing by FACScan flow cytometer and Cell Quest sofeware.

Data set [3] has as its system human bladder cancer cell line NTUB1. Nature of the data set: Trial (A): cytotoxic effect, IC50 by median-effect analysis. The data set is classed as cell-based. As to conditions: NTUB1 cells; for IC50: mean ± SD; for cytotoxic effect against cancer cell: with reference to TABLE 2. The source says: (§1) For the sake of proving therapeutic effects of the derivatives of 18β-glycyrrhetinic acid of the present invention, including 10, 11, 13-17 and 21-25, in treating of cancer, human bladder cancer cell line NTUB1, human prostate cancer cell line PC3 cataloged as CRL-1435 (reference to J. Formosan Med. Assoc. 1992; 91:608-13), and immortalized normal human urothelial cells SV-HUC1 cataloged as CRL-9520 are purchased from American Type Culture Collection (ATCC; Rockville, USA) and maintained in a culturing medium respectively till at a preferable density to carry out a serial of trials (comprising trial A to G) for evaluating cytotoxicities of the derivatives of 18β-glycyrrhetinic acid against cancer cells, and mechanisms thereof.
In the present invention, the NTUB1 and the PC3 is but not limit to be maintained in RPMI 1640 medium supplemented 10% fetal bovine serum (FBS), 100 unit/mL penicillin-G, 100 μg/mL streptomycin, and 2 mM L-glutamine, yet the SV-HUC1 is maintained in F12 medium supplemented with 10% fetal bovine serum (FBS), 100 unit/mL penicillin-G, 100 μg/mL streptomycin, and 2 mM L-glutamine, culturing at 37° C. in a humidified atmosphere containing 5% CO2 till at a density of 70% per well, followed by repeatedly suspending cells in each well with an ethylene diamine tetra-acetic acid buffer (EDTA buffer; Merck) and counting cell numbers.
In the present invention, the IC50 values of each group are presented as mean±standard deviation (SD).

A further data set relates to NTUB1. Nature of the data set: Trial (B): MTT cytotoxicity assay, 72 hours. The class given is cell-based, human. As to conditions: 0-50 μM.
Source text: as §1, with “thereof. […]” for “thereof.”
(§2) In trial (B), the cell lines of NTUB1, PC3, and SV-HUC1 are prepared in 96-well plates and co-incubated with the compounds 21, 23 or 25 in various concentrations of 0, 0.3, 1, 3, 5, 10, 30 and 50 μM, to analyze cytotoxic effects against either cancer cell or normal cells via a modified 3-[4,5-dimethylthiazol-2-yl]-2,5-diphenyltetrazolium bromide (MTT, Sigma Chemical Co.) assay. […] At co-incubation, 50 μL of MTT (2 mg/mL in PB) is added to each well to react for 3 hours, followed by centrifugating the 96-well plates at 1000 g for 10 min to remove supernatant, adding 150 μL DMSO in each well of the 96-well plates, and determining viability rates of the NTUB1, PC3, and SV-HUC1 cells separately by an absorbance spectrometry at 540 nm with a MRX (DYNEXCO) microplate reader.

In data set [4] the test system is immortalized normal human urothelial cells SV-HUC1. Nature of the data set: Trial (B): MTT assay on normal cells, 72 hours. The data set is classed as cell-based. As to conditions: 0-50 μM.
Source text: as §1, with “thereof. […]” for “thereof.”
as §2

Data set [5] relates to human prostate cancer cell line PC3. Nature of the data set: Trial (B): MTT cytotoxicity assay, 72 hours. The class given is cell-based. Conditions: 0-50 μM.
Source text: as §1, with “thereof. […]” for “thereof.”
as §2
(Tetrazolium assays rely on reduction of a dye to a coloured formazan, in cell work by metabolically active cells.)

For a further data set, the system named is p-p53 (Ser15). Nature of the data set: Trial (G): expression of p53 / p-p53 by Western blot. Conditions: NAC with 50 μM 25, 24 hours, NTUB1. The class given is cell-based, human. The protocol:
In trial (G), expression of p53 is monitored via Western blot analysis in accordance with a journal article published by Son et al., at 2010 in Toxicol. Appl. Pharmacol., in which overproduction ROS induced p53 suppression is observed.
Referring to TABLE 7, the NTUB1 cells at a density of 8×10^5 cells/ml are prepared and assigned into 9 groups, including G1-1 to G1-5 and G2-1 to G2-4, to incubate in various medium for 24 hours, followed by harvesting in trypsinization, resuspending in PBS till at a suitable density and collecting the NTUB1 cells of each group respectively.
Next, the NTUB1 cells of each group are further diluted with equal volume of 2× sample buffer, boiled for 10 minutes twice to denature protein therein, and analyzed by SDS-PAGE. After that, proteins on SDS-PAGE datum are transferred to nitrocellulose membranes (Millipore, Billerica, Mass., USA) using a semi-dry blotter, followed by blocking with 5% (w/v) skimmed milk in TBST buffer (100 mM Tris-HCl (pH 7.5), 150 mM NaCl and 0.1% Tween-20), incubating with specific antibodies [including antibodies specific for b-acctin (NB600-501), p-p53 (Ser15) (9284) and p53 (DO1)]. at 4° C. overnight, washing with TBST buffer again and incubated with secondary antibody at room temperature. Finally, western data of each group are visualized on Fuji SuperRX film. […]

The term IC50 denotes the point on the concentration scale where inhibition reaches its midpoint. `N.N.[Cl][Pt][Cl]` [cisplatin, cis-diamminedichloroplatinum II, reference compound]: the “ROS (%)” value in the data set on NTUB1 cells [1] (20 μM) came out at 63.1%. Besides, in the data set on NTUB1 cells [2] (20 μM), the G1 was 60.91, the G2/M was 6.65, the S amounted to 22.09 and the Sub-G1 is 10.35. In data set [3], the midpoint of inhibition, the IC50, lay at 3.27 ± 0.1 µM.
For `C=C(C)[C@@H]1CC[C@]2(C)[C@H](C(=O)C=C3[C@@H]4C[C@@](C)(C(=O)NC(C)C)CC[C@]4(C)CC[C@]32C)[C@@]1(C)CCC(=O)OCC` [Compound 21, 30-isopropyl carbamoyl-11-oxo-18β-3,4-seco-olean-4(23),12-dien 3-ethyl ester], the “cytotoxic effect (survival ratio, FIGS. 4-6)” value in the data set with NTUB1 is listed as “cytotoxic effects against to the cancer cells in a dose-dependent manner, particularly in against to NTUB1 cell”. In addition, in data set [4], the “effect on growth of normal cells (survival ratio, FIGS. 4-6)” value is “enhance the growth of SV-HUC1 cells”. For the same molecule, the “cytotoxic effect (survival ratio, FIGS. 4-6)” value in data set [5] is reported as “cytotoxic effects against to the cancer cells in a dose-dependent manner”. Moreover, in data set [3], the “cytotoxic effect against cancer cell” value is on record as “significantly suppress the growth of cancer cells with a lower concentrate” and it took 19.4 ± 19.2 µM to reach half-maximal inhibition (IC50).
Turning to `CC(=O)N[C@@H](CS)C(=O)O` [NAC, reference compound], the “ROS (%)” value in the data set on NTUB1 cells [1] (1 mM) is given as 26.1%. Further, the “effect on p53 phosphorylation stimulated by 25 (Western blot, FIG. 10)” value in the data set on p-p53 (Ser15) was “prevents p53 phosphorylation that stimulated by 25”. In the data set on NTUB1 cells [2] (1 mM), this molecule had a G1 of 44.41, an S of 29.18 and a Sub-G1 of 2.66. This molecule also registered a G2/M with NTUB1 cells [2] of 20.18.
Consider `C=C(C)[C@@H]1CC[C@]2(C)[C@H](C(=O)C=C3[C@@H]4C[C@@](C)(C(=O)NC(C)C)CC[C@]4(C)CC[C@]32C)[C@@]1(C)CCC(=O)NCC` [Compound 23], for which the “cytotoxic effect (survival ratio, FIGS. 4-6)” value in the data set with NTUB1 was “cytotoxic effects against to the cancer cells in a dose-dependent manner, particularly in against to NTUB1 cell”; in data set [5] it was “cytotoxic effects against to the cancer cells in a dose-dependent manner”. For the same molecule, the “effect on growth of normal cells (survival ratio, FIGS. 4-6)” value in data set [4] was “enhance the growth of SV-HUC1 cells”. Besides, in data set [3], the “cytotoxic effect against cancer cell” value is “significantly suppress the growth of cancer cells with a lower concentrate”. Further, half-maximal inhibition in data set [3] (IC50) was put at 12.8 ± 2.1 µM.

Source of the values: patent US8686178B2, “Derivative of 18β-glycyrrhetinic acid apt to suppress cancer cells” (Kaohsiung Medical University, priority 2011, dated 2014).
